Laboratory results published in PubChem BioAssay AID1963842 (Molecular Pharmacology Branch, DTP, NCI, 2024).

Tested on: 677734-321-R-J1-PDC complex spheroid viability
Test: Anticancer human tumor 677734-321-R-J1-PDC patient-derived soft tissue sarcoma cell line growth inhibition [POLQ]
Conditions: for IC50: curve of first compound; for viability, T/C: stronger effect = lower value
How it was run: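 Growth inhibition in 3D: complex spheroids (tumor PDC, HUVEC, MSC) treated with POLQ inhibitor combinations; where Cmax unknown, highest tested concentration 10 microM, except SN-38 at 1 microM.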

[1] = second compound 0.0316 µM, first compound 0.0316 µM
[2] = second compound 0.0316 µM, first compound 0.1 µM
[3] = second compound 0.0316 µM, first compound 0.316 µM
[4] = second compound 0.0316 µM, first compound 1 µM
[5] = second compound 0.0316 µM, first compound 3.16 µM
[6] = second compound 0.0316 µM, first compound 10 µM
[7] = second compound 0.1 µM, first compound 0.0316 µM
[8] = second compound 0.1 µM, first compound 0.1 µM
[9] = second compound 0.1 µM, first compound 0.316 µM
[10] = second compound 0.1 µM, first compound 1 µM
[11] = second compound 0.1 µM, first compound 3.16 µM
[12] = second compound 0.1 µM, first compound 10 µM
[13] = second compound 0.316 µM, first compound 0.0316 µM
[14] = second compound 0.316 µM, first compound 0.1 µM
[15] = second compound 0.316 µM, first compound 0.316 µM
[16] = second compound 0.316 µM, first compound 1 µM
[17] = second compound 0.316 µM, first compound 3.16 µM
[18] = second compound 0.316 µM, first compound 10 µM
[19] = second compound 1 µM, first compound 0.0316 µM
[20] = second compound 1 µM, first compound 0.1 µM
[21] = second compound 1 µM, first compound 0.316 µM
[22] = second compound 1 µM, first compound 1 µM
[23] = second compound 1 µM, first compound 3.16 µM
[24] = second compound 1 µM, first compound 10 µM
[25] = second compound 3.16 µM, first compound 0.0316 µM
[26] = second compound 3.16 µM, first compound 0.1 µM
[27] = second compound 3.16 µM, first compound 0.316 µM
[28] = second compound 3.16 µM, first compound 1 µM
[29] = second compound 3.16 µM, first compound 3.16 µM
[30] = second compound 3.16 µM, first compound 10 µM
[31] = second compound 10 µM, first compound 0.0316 µM
[32] = second compound 10 µM, first compound 0.1 µM
[33] = second compound 10 µM, first compound 0.316 µM
[34] = second compound 10 µM, first compound 1 µM
[35] = second compound 10 µM, first compound 3.16 µM
[36] = second compound 10 µM, first compound 10 µM
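Also: spheroids exposed to compounds for one week.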
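For viability, T/C in this document: 100% = vehicle DMSO treated spheroids.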

CC(C)n1c(=O)n(C)c2cnc3cc(F)c(-c4ccc(OCCCN5CCCCC5)nc4)cc3c21 + Cc1cccc(N(C)C(=O)C2C(O)CCN2c2nc(C)cc(C(F)(F)F)c2C#N)c1
IC50 (second compound 0.0316 µM): > 10 µM | IC50 (second compound 0.1 µM): > 10 µM | IC50 (second compound 0.316 µM): > 10 µM | IC50 (second compound 1 µM): > 10 µM | IC50 (second compound 3.16 µM): > 10 µM | IC50 (second compound 10 µM): > 10 µM | viability, T/C [1]: 104% | viability, T/C [2]: 98.6% | viability, T/C [3]: 104% | viability, T/C [4]: 98.2% | viability, T/C [5]: 99% | viability, T/C [6]: 92.4% | viability, T/C [7]: 104% | viability, T/C [8]: 101% | viability, T/C [9]: 99.4% | viability, T/C [10]: 100% | viability, T/C [11]: 98.7% | viability, T/C [12]: 88.6% | viability, T/C [13]: 101% | viability, T/C [14]: 91.6% | viability, T/C [15]: 102% | viability, T/C [16]: 109% | viability, T/C [17]: 106% | viability, T/C [18]: 99.8% | viability, T/C [19]: 110% | viability, T/C [20]: 93.5% | viability, T/C [21]: 99% | viability, T/C [22]: 108% | viability, T/C [23]: 104% | viability, T/C [24]: 88.1% | viability, T/C [25]: 98.7% | viability, T/C [26]: 102% | viability, T/C [27]: 109% | viability, T/C [28]: 106% | viability, T/C [29]: 99.3% | viability, T/C [30]: 92.4% | viability, T/C [31]: 101% | viability, T/C [32]: 98.8% | viability, T/C [33]: 97.5% | viability, T/C [34]: 95.8% | viability, T/C [35]: 97.4% | viability, T/C [36]: 92.5%

CC1COCCN1c1cc(-c2ccnn2C)c2ccnc(-c3ccn[nH]3)c2n1 (stereo unspecified) + Cc1cccc(N(C)C(=O)C2C(O)CCN2c2nc(C)cc(C(F)(F)F)c2C#N)c1
IC50 (second compound 0.0316 µM): 0.161 µM | IC50 (second compound 0.1 µM): 0.175 µM | IC50 (second compound 0.316 µM): 0.153 µM | IC50 (second compound 1 µM): 0.156 µM | IC50 (second compound 3.16 µM): 0.125 µM | IC50 (second compound 10 µM): 0.11 µM | viability, T/C [1]: 100% | viability, T/C [2]: 67.6% | viability, T/C [3]: 24.8% | viability, T/C [4]: 21.6% | viability, T/C [5]: 18.2% | viability, T/C [6]: 14.3% | viability, T/C [7]: 88.9% | viability, T/C [8]: 70.9% | viability, T/C [9]: 27.8% | viability, T/C [10]: 17.1% | viability, T/C [11]: 17.4% | viability, T/C [12]: 16.6% | viability, T/C [13]: 98.1% | viability, T/C [14]: 64.9% | viability, T/C [15]: 24.2% | viability, T/C [16]: 19.6% | viability, T/C [17]: 20.3% | viability, T/C [18]: 16.3% | viability, T/C [19]: 99.9% | viability, T/C [20]: 65.5% | viability, T/C [21]: 25.4% | viability, T/C [22]: 18.7% | viability, T/C [23]: 18.9% | viability, T/C [24]: 15.8% | viability, T/C [25]: 90.7% | viability, T/C [26]: 56% | viability, T/C [27]: 25.2% | viability, T/C [28]: 19.1% | viability, T/C [29]: 16.5% | viability, T/C [30]: 18.6% | viability, T/C [31]: 89.7% | viability, T/C [32]: 52.5% | viability, T/C [33]: 21.7% | viability, T/C [34]: 17.2% | viability, T/C [35]: 18.4% | viability, T/C [36]: 16%

CC1COCCN1c1cc(C2(S(C)(=N)=O)CC2)nc(-c2ccnc3[nH]ccc23)n1 (stereo unspecified) + Cc1cccc(N(C)C(=O)C2C(O)CCN2c2nc(C)cc(C(F)(F)F)c2C#N)c1
IC50 (second compound 0.0316 µM): 4.03 µM | IC50 (second compound 0.1 µM): 3.86 µM | IC50 (second compound 0.316 µM): 3.91 µM | IC50 (second compound 1 µM): 3.79 µM | IC50 (second compound 3.16 µM): 3.1 µM | IC50 (second compound 10 µM): 3.03 µM | viability, T/C [1]: 106% | viability, T/C [2]: 105% | viability, T/C [3]: 104% | viability, T/C [4]: 91% | viability, T/C [5]: 57% | viability, T/C [6]: 24.2% | viability, T/C [7]: 106% | viability, T/C [8]: 110% | viability, T/C [9]: 96.5% | viability, T/C [10]: 92.9% | viability, T/C [11]: 53.6% | viability, T/C [12]: 28.6% | viability, T/C [13]: 117% | viability, T/C [14]: 108% | viability, T/C [15]: 100% | viability, T/C [16]: 90.4% | viability, T/C [17]: 54.3% | viability, T/C [18]: 22% | viability, T/C [19]: 109% | viability, T/C [20]: 102% | viability, T/C [21]: 98.5% | viability, T/C [22]: 98.3% | viability, T/C [23]: 54.5% | viability, T/C [24]: 25.4% | viability, T/C [25]: 104% | viability, T/C [26]: 103% | viability, T/C [27]: 99.7% | viability, T/C [28]: 90.6% | viability, T/C [29]: 49.2% | viability, T/C [30]: 37.8% | viability, T/C [31]: 102% | viability, T/C [32]: 96.5% | viability, T/C [33]: 93.1% | viability, T/C [34]: 87% | viability, T/C [35]: 48.3% | viability, T/C [36]: 26%
